{"source": "patent US11458123B2", "about": "(Arvinas, Inc., priority 2016, dated 2022)"}
{"system": "tau protein", "experiment": "Tau protein in vitro degradation assay (Western blot, Tau-13 antibody)", "assay_type": "cell-based, human", "conditions": "SK-N-SH cells; 72 hours of incubation; tested at 300 nM, 100 nM, 33 nM and 11 nM; Western blot, Tau-13 antibody", "method_in_brief": "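SK-N-SH cells, seeded ≥18 h beforehand, were incubated 72 h with tau PROTACs at 1000, 300 and 100 nM or at 300, 100, 33 and 11 nM. Lysates in protease-inhibitor buffer were resolved by SDS-PAGE; tau quantified by Western blot with Tau-13 antibody recognising all human tau forms.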"}
{"smiles": "O=C1CCC(N2C(=O)c3ccc(OCCCCCOC4CCN(C(=O)[C@H]5C[C@H](Oc6ccc(-c7ccc8c(c7)[nH]c7ccncc78)cn6)C5)CC4)cc3C2=O)C(=O)N1", "note": "(some centres unmarked) [Compound 165, 5-((5-((1-((1r,3r)-3-((5-(5H-pyrido[4,3-b]indol-7-yl)pyridin-2-yl)oxy)cyclobutane-1-carbonyl)piperidin-4-yl)oxy)pentyl)oxy)-2-(2,6-dioxopiperidin-3-yl)isoindoline-1,3-dione]", "Degradation activity* (highest amount of degradation observed at any dosage; tau protein remaining)": "C (>80% tau protein remaining after 72 hours of incubation with the test compound)"}
{"smiles": "O=C1CCC(N2C(=O)c3ccc(OCCCCCOC4CCN(C(=O)[C@H]5C[C@@H](Oc6ccc(-c7ccc8c(c7)[nH]c7ccncc78)cn6)C5)CC4)cc3C2=O)C(=O)N1", "note": "(some centres unmarked) [Compound 166, 5-((5-((1-((1r,3r)-3-((5-(5H-pyrido[4,3-b]indol-7-yl)pyridin-2-yl)oxy)cyclobutane-1-carbonyl)piperidin-4-yl)oxy)pentyl)oxy)-2-(2,6-dioxopiperidin-3-yl)isoindoline-1,3-dione]", "Degradation activity* (highest amount of degradation observed at any dosage; tau protein remaining)": "C (>80% tau protein remaining after 72 hours of incubation with the test compound)"}
{"smiles": "Cn1c2ccncc2c2ccc(-c3ccc(OCCCOc4ccc(C#CCOC5CN(c6ccc7c(c6)C(=O)N(C6CCC(=O)NC6=O)C7=O)C5)nc4)nc3)cc21", "note": "(centres unmarked) [Compound 167, 2-(2,6-dioxopiperidin-3-yl)-5-(3-((3-(5-(3-((5-(5-methyl-5H-pyrido[4,3-b]indol-7-yl)pyridin-2-yl)oxy)propoxy)pyridin-2-yl)prop-2-yn-1-yl)oxy)azetidin-1-yl)isoindoline-1,3-dione]", "Degradation activity* (highest amount of degradation observed at any dosage; tau protein remaining)": "C (>80% tau protein remaining after 72 hours of incubation with the test compound)"}
{"smiles": "Cn1c2ccncc2c2ccc(-c3ccc(OCCCOc4ccc(CCCOC5CN(c6ccc7c(c6)C(=O)N(C6CCC(=O)NC6=O)C7=O)C5)nc4)nc3)cc21", "note": "(centres unmarked) [Compound 168, 2-(2,6-dioxopiperidin-3-yl)-5-(3-(3-(5-(3-((5-(5-methyl-5H-pyrido[4,3-b]indol-7-yl)pyridin-2-yl)oxy)propoxy)pyridin-2-yl)propoxy)azetidin-1-yl)isoindoline-1,3-dione]", "Degradation activity* (highest amount of degradation observed at any dosage; tau protein remaining)": "B (≤80% and >50% tau protein remaining after 72 hours of incubation with the test compound)"}
{"smiles": "Cn1c2ccncc2c2ccc(-c3ccc(O[C@H]4C[C@H](OCC5(COCCCOC6CN(c7ccc8c(c7)C(=O)N(C7CCC(=O)NC7=O)C8=O)C6)COC5)C4)nc3)cc21", "note": "(some centres unmarked) [Compound 169, 2-(2,6-dioxopiperidin-3-yl)-5-(3-(3-((3-(((1r,3r)-3-((5-(5-methyl-5H-pyrido[4,3-b]indol-7-yl)pyridin-2-yl)oxy)cyclobutoxy)methyl)oxetan-3-yl)methoxy)propoxy)azetidin-1-yl)isoindoline-1,3-dione]", "Degradation activity* (highest amount of degradation observed at any dosage; tau protein remaining)": "A (≤50% tau protein remaining after 72 hours of incubation with the test compound)"}
{"smiles": "Cn1c2ccncc2c2ccc(-c3ccc(O[C@H]4C[C@@H](OCCCOCCCOC5CN(c6ccc7c(c6)C(=O)N(C6CCC(=O)NC6=O)C7=O)C5)C4)nc3)cc21", "note": "(some centres unmarked) [Compound 170, 2-(2,6-dioxopiperidin-3-yl)-5-(3-(3-(3-((1 s,3 s)-3-((5-(5-methyl-5H-pyrido[4,3-b]indol-7-yl)pyridin-2-yl)oxy)cyclobutoxy)propoxy)propoxy)azetidin-1-yl)isoindoline-1,3-dione]", "Degradation activity (tau protein remaining; highest amount of degradation observed at any dosage)": "A (≤50% tau protein remaining after 72 hours of incubation with the test compound)"}
{"smiles": "Cn1c2ccncc2c2ccc(-c3ccc(O[C@H]4C[C@H](OC5CCN(CC(F)(F)CCCOc6ccc7c(c6)C(=O)N(C6CCC(=O)NC6=O)C7=O)CC5)C4)nc3)cc21", "note": "(some centres unmarked) [Compound 171, 5-((4,4-difluoro-5-(4-((1r,3r)-3-((5-(5-methyl-5H-pyrido[4,3-b]indol-7-yl)pyridin-2-yl)oxy)cyclobutoxy)piperidin-1-yl)pentyl)oxy)-2-(2,6-dioxopiperidin-3-yl)isoindoline-1,3-dione]", "Degradation activity (tau protein remaining; highest amount of degradation observed at any dosage)": "C (>80% tau protein remaining after 72 hours of incubation with the test compound)"}
{"smiles": "O=C1CCC(N2C(=O)c3ccc(OCCCCC#Cc4ccc(O[C@H]5C[C@H](Oc6ccc(-c7ccc8c(c7)[nH]c7ccncc78)cn6)C5)cn4)cc3C2=O)C(=O)N1", "note": "(some centres unmarked) [Compound 172, 5-((6-(5-((1r,3r)-3-((5-(5H-pyrido[4,3-b]indol-7-yl)pyridin-2-yl)oxy)cyclobutoxy)pyridin-2-yl)hex-5-yn-1-yl)oxy)-2-(2,6-dioxopiperidin-3-yl)isoindoline-1,3-dione]", "Degradation activity (tau protein remaining; highest amount of degradation observed at any dosage)": "C (>80% tau protein remaining after 72 hours of incubation with the test compound)"}
{"smiles": "O=C1CCC(N2C(=O)c3ccc(OCCOCC#Cc4ccc(O[C@H]5C[C@H](Oc6ccc(-c7ccc8c(c7)[nH]c7ccncc78)cn6)C5)cn4)cc3C2=O)C(=O)N1", "note": "(some centres unmarked) [Compound 173, 5-(2-((3-(5-((1r,3r)-3-((5-(5H-pyrido[4,3-b]indol-7-yl)pyridin-2-yl)oxy)cyclobutoxy)pyridin-2-yl)prop-2-yn-1-yl)oxy)ethoxy)-2-(2,6-dioxopiperidin-3-yl)isoindoline-1,3-dione]", "Degradation activity (tau protein remaining; highest amount of degradation observed at any dosage)": "A (≤50% tau protein remaining after 72 hours of incubation with the test compound)"}
{"smiles": "Cn1c2ccncc2c2ccc(-c3ccc(OC4CN(C(=O)C56CC(COCCCCCOc7ccc8c(c7)C(=O)N(C7CCC(=O)NC7=O)C8=O)(C5)C6)C4)nc3)cc21", "note": "(centres unmarked) [Compound 175, 2-(2,6-dioxopiperidin-3-yl)-5-((5-((3-(3-((5-(5-methyl-5H-pyrido[4,3-b]indol-7-yl)pyridin-2-yl)oxy)azetidine-1-carbonyl)bicyclo[1.1.1]pentan-1-yl)methoxy)pentyl)oxy)isoindoline-1,3-dione]", "Degradation activity (tau protein remaining; highest amount of degradation observed at any dosage)": "C (>80% tau protein remaining after 72 hours of incubation with the test compound)"}
{"smiles": "Cn1c2ccncc2c2c(F)c(F)c(-c3ccc(O[C@H]4C[C@H](OCCCOCCCOC5CN(c6ccc7c(c6)C(=O)N(C6CCC(=O)NC6=O)C7=O)C5)C4)nc3)cc21", "note": "(some centres unmarked) [Compound 176, 5-(3-(3-(3-((1r,3r)-3-((5-(8,9-difluoro-5-methyl-5H-pyrido[4,3-b]indol-7-yl)pyridin-2-yl)oxy)cyclobutoxy)propoxy)propoxy)azetidin-1-yl)-2-(2,6-dioxopiperidin-3-yl)isoindoline-1,3-dione]", "Degradation activity (tau protein remaining; highest amount of degradation observed at any dosage)": "C (>80% tau protein remaining after 72 hours of incubation with the test compound)"}
{"smiles": "Cn1c2ccncc2c2ccc(-c3ccc(O[C@H]4C[C@H](OCCCOCCCOC5CN(c6ccc7c(c6)CN(C6CCC(=O)NC6=O)C7=O)C5)C4)nc3)cc21", "note": "(some centres unmarked) [Compound 177, 3-(5-(3-(3-(3-((1r,3r)-3-((5-(5-methyl-5H-pyrido[4,3-b]indol-7-yl)pyridin-2-yl)oxy)cyclobutoxy)propoxy)propoxy)azetidin-1-yl)-1-oxoisoindolin-2-yl)piperidine-2,6-dione]", "Degradation activity (tau protein remaining; highest amount of degradation observed at any dosage)": "A (≤50% tau protein remaining after 72 hours of incubation with the test compound)"}
{"smiles": "Cn1c2ccncc2c2ccc(-c3ccc(O[C@H]4C[C@H](OCCCCCCOCC5CN(c6ccc7c(c6)C(=O)N(C6CCC(=O)NC6=O)C7=O)C5)C4)nc3)cc21", "note": "(some centres unmarked) [Compound 178, 2-(2,6-dioxopiperidin-3-yl)-5-(3-(((6-((1r,3r)-3-((5-(5-methyl-5H-pyrido[4,3-b]indol-7-yl)pyridin-2-yl)oxy)cyclobutoxy)hexyl)oxy)methyl)azetidin-1-yl)isoindoline-1,3-dione]", "Degradation activity (tau protein remaining; highest amount of degradation observed at any dosage)": "A (≤50% tau protein remaining after 72 hours of incubation with the test compound)"}
{"smiles": "Cn1c2ccncc2c2ccc(-c3ccc(O[C@H]4C[C@H](Oc5ccc(C#CCOCCOc6ccc7c(c6)C(=O)N(C6CCC(=O)NC6=O)C7=O)nc5)C4)nc3)cc21", "note": "(some centres unmarked) [Compound 179, 2-(2,6-dioxopiperidin-3-yl)-5-(2-((3-(5-((1r,3r)-3-((5-(5-methyl-5H-pyrido[4,3-b]indol-7-yl)pyridin-2-yl)oxy)cyclobutoxy)pyridin-2-yl)prop-2-yn-1-yl)oxy)ethoxy)isoindoline-1,3-dione]", "Degradation activity (tau protein remaining; highest amount of degradation observed at any dosage)": "A (≤50% tau protein remaining after 72 hours of incubation with the test compound)"}
{"smiles": "O=C1CCC(N2Cc3cc(OCC#Cc4ccc(O[C@H]5C[C@H](Oc6ccc(-c7ccc8c(c7)[nH]c7ccncc78)cn6)C5)cn4)ccc3C2=O)C(=O)N1", "note": "(some centres unmarked) [Compound 180, 3-(5-((3-(5-((1r,3r)-3-((5-(5H-pyrido[4,3-b]indol-7-yl)pyridin-2-yl)oxy)cyclobutoxy)pyridin-2-yl)prop-2-yn-1-yl)oxy)-1-oxoisoindolin-2-yl)piperidine-2,6-dione]", "Degradation activity (tau protein remaining; highest amount of degradation observed at any dosage)": "A (≤50% tau protein remaining after 72 hours of incubation with the test compound)"}
{"smiles": "Cn1c2ccncc2c2ccc(-c3ccc(O[C@H]4C[C@H](OCCCCCOCCC5CN(c6ccc7c(c6)C(=O)N(C6CCC(=O)NC6=O)C7=O)C5)C4)nc3)cc21", "note": "(some centres unmarked) [Compound 181, 2-(2,6-dioxopiperidin-3-yl)-5-(3-(2-((5-((1r,3r)-3-((5-(5-methyl-5H-pyrido[4,3-b]indol-7-yl)pyridin-2-yl)oxy)cyclobutoxy)pentyl)oxy)ethyl)azetidin-1-yl)isoindoline-1,3-dione]", "Degradation activity (tau protein remaining; highest amount of degradation observed at any dosage)": "B (≤80% and >50% tau protein remaining after 72 hours of incubation with the test compound)"}
{"smiles": "O=C1CCC(N2C(=O)c3ccc(N4CC(OCCCOCCCO[C@H]5C[C@H](Oc6ccc(-c7ccc8c(c7)[nH]c7ccncc78)cn6)C5)C4)cc3C2=O)C(=O)N1", "note": "(some centres unmarked) [Compound 182, 5-(3-(3-(3-((1r,3r)-3-((5-(5H-pyrido[4,3-b]indol-7-yl)pyridin-2-yl)oxy)cyclobutoxy)propoxy)propoxy)azetidin-1-yl)-2-(2,6-dioxopiperidin-3-yl)isoindoline-1,3-dione]", "Degradation activity (tau protein remaining; highest amount of degradation observed at any dosage)": "A (≤50% tau protein remaining after 72 hours of incubation with the test compound)"}
